Reference: patent US9546164B2 (GENENTECH, INC., priority 2013, dated 2017)
Where a name gives a salt, the structure may show the parent alone. Read-outs that look alike come from different tables or passages of the source.

Target: hNav1.7 (Homo sapiens (Human), UniProt Q15858)
Assay: Tritiated sulfonamide competitive binding to membranes from cells expressing hNav1.7 and the β1 subunit;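 also: Filter-bound radioactivity counted by liquid scintillation, nonspecific binding defined with excess unlabelled ligand, IC50 fitted to percent inhibition of specific binding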
[1] = read-out: Ligand Binding Assay, 100 pM [3H]compound, membranes with hNav1.7 and β1 subunit, 18 h, room temperature

hNav1.7, sequence (Q15858 other isoform, or with tags, fused parts or gaps): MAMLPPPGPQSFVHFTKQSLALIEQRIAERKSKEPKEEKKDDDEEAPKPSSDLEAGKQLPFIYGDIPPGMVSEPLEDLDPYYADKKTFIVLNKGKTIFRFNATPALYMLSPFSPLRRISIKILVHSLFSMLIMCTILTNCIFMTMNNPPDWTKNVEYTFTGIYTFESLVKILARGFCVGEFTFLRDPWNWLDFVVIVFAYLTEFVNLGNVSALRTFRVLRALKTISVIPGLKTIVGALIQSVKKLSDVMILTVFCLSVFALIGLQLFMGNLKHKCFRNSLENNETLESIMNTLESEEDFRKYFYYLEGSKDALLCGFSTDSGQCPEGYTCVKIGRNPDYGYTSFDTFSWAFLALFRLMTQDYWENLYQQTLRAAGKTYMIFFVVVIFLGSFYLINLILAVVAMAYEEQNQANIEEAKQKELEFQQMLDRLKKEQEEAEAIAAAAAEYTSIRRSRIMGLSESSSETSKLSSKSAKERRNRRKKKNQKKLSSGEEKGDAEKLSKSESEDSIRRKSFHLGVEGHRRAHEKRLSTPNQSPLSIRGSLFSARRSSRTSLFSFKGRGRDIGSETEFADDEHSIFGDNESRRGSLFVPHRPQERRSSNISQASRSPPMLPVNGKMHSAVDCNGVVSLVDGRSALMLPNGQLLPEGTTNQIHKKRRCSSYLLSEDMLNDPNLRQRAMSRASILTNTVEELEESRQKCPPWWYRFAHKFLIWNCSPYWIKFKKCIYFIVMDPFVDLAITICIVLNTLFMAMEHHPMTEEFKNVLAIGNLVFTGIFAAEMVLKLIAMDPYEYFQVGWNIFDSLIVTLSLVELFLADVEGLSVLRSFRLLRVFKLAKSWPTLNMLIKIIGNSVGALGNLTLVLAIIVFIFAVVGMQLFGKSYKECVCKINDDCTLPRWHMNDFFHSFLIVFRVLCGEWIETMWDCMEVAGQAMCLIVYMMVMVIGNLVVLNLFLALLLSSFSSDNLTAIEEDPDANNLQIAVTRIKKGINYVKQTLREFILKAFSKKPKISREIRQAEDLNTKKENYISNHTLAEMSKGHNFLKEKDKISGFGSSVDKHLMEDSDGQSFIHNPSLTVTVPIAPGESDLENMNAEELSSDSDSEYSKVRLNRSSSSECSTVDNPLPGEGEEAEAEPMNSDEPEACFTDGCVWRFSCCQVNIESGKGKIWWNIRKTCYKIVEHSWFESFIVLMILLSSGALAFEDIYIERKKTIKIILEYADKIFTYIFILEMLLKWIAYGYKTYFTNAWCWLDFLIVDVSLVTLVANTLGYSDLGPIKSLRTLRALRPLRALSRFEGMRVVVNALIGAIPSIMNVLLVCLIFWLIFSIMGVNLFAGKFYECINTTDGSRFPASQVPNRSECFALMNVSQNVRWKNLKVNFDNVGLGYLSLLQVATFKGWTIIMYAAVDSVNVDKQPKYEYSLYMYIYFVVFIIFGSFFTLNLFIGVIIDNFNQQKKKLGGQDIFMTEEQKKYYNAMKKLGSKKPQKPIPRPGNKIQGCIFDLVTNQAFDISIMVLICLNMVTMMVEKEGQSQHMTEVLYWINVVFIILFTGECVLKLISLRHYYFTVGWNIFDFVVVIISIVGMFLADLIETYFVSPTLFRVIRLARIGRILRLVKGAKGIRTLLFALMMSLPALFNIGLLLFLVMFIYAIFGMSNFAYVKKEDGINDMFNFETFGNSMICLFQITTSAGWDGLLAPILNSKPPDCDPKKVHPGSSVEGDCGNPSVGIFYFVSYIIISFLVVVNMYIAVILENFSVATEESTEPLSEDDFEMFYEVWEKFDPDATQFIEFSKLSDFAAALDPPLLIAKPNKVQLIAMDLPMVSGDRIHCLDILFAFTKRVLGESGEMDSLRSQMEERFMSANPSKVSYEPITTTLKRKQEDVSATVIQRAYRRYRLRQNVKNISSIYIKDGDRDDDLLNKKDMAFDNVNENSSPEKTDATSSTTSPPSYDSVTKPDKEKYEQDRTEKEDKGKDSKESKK
hNav1.7, sequence (Q07699 19-218 partner): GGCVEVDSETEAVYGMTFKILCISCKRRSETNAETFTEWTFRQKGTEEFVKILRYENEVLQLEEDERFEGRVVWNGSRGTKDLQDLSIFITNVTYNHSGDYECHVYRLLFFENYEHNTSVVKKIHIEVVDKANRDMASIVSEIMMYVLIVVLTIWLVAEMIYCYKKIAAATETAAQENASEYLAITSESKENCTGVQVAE

IC50 [1] | IC50 | Compound
2.9 nM |  | CC1(COc2cc(F)c(C(=O)NS(C)(=O)=O)cc2C2CC2)CCN(Cc2cc(Cl)cc(Cl)c2)CC1 [Example 123, 5-cyclopropyl-4-((1-(3,5-dichlorobenzyl)-4-methylpiperidin-4-yl)methoxy)-2-fluoro-N-(methylsulfonyl)benzamide]
350 nM |  | CS(=O)(=O)NC(=O)c1cc(C2CC2)c(OCC2CCN(C(=O)c3cccc(Cl)c3)CC2)cc1F [Example 195, 4-((1-(3-Chlorobenzoyl)piperidin-4-yl)methoxy)-5-cyclopropyl-2-fluoro-N-(methylsulfonyl)benzamide]
 | 3.2 nM | O=C(NS(=O)(=O)N1CCC1)c1cc(C2CC2)c(O[C@@H]2CCCN(Cc3ccccc3Cl)C2)cc1F [Example 25, (R)—N-(azetidin-1-ylsulfonyl)-4-((1-(2-chlorobenzyl)piperidin-3-yl)oxy)-5-cyclopropyl-2-fluorobenzamide]
11.1 nM |  | CS(=O)(=O)NC(=O)c1cc(C2CC2)c(OCC2CN([C@H](c3ccccc3)c3ccc(OC(F)(F)F)cc3)C2)cc1F [Example 113, (R)-5-Cyclopropyl-2-fluoro-N-(methylsulfonyl)-4-((1-(phenyl(4-(trifluoromethoxy)phenyl)methyl)azetidin-3-yl)methoxy)benzamide]
4.5 nM |  | CC1(COc2cc(F)c(C(=O)NS(C)(=O)=O)cc2C2CC2)CCN(Cc2ccc(Cl)c(Cl)c2)CC1 [Example 575, 5-cyclopropyl-4-((1-(3,4-dichlorobenzyl)-4-methylpiperidin-4-yl)methoxy)-2-fluoro-N-(methylsulfonyl)benzamide]
 | 4.9 nM | O=C(NS(=O)(=O)N1CCC1)c1cc(C2CC2)c(O[C@@H]2CCCN(c3cc(Cl)cc(Cl)c3)C2)cc1F [Example 43, (R)—N-(azetidin-1-ylsulfonyl)-5-cyclopropyl-4-((1-(3,5-dichlorophenyl)piperidin-3-yl)oxy)-2-fluorobenzamide]
12 nM |  | C[C@H](c1ccc(F)cc1Cl)N1CCC(COc2cc(F)c(C(=O)NS(C)(=O)=O)cc2C2CC2)CC1 [Example 244]
 | 8.2 nM | O=C(NS(=O)(=O)C1CC1)c1cc(C2CC2)c(CN2CCN(Cc3cc(Cl)cc(Cl)c3)CC2)cc1F [Example 518, 5-cyclopropyl-N-(cyclopropylsulfonyl)-4-((4-(3,5-dichlorobenzyl)piperazin-1-yl)methyl)-2-fluorobenzamide, trifluoroacetic acid salt]
14 nM |  | COC[C@H](c1ccc(F)c(Cl)c1)N1CCC(COc2cc(F)c(C(=O)NS(C)(=O)=O)cc2C2CC2)CC1 (single isomer, unassigned) [Example 182]
49.5 nM |  | CC(c1cc(F)cc(F)c1)N1CC(COc2cc(F)c(C(=O)NS(C)(=O)=O)cc2C2CC2)C1 (stereo not drawn) [Example 86, 5-Cyclopropyl-4-((1-(1-(3,5-difluorophenyl)ethyl)azetidin-3-yl)methoxy)-2-fluoro-N-(methylsulfonyl)benzamide]
9.5 nM |  | O=C(NS(=O)(=O)C1CC1)c1cc(C2CC2)c(CN2CCC(Oc3ncc(Br)cc3Cl)CC2)cc1F [Example 473, 4-((4-((5-bromo-3-chloropyridin-2-yl)oxy)piperidin-1-yl)methyl)-5-cyclopropyl-N-(cyclopropylsulfonyl)-2-fluorobenzamide, trifluoroacetic acid salt]
7.3 nM |  | CS(=O)(=O)NC(=O)c1cc(C2CC2)c(CN2CCO[C@H](Cc3ccc(F)cc3Cl)C2)cc1F [Example 466, (R)-4-((2-(2-chloro-4-fluorobenzyl)morpholino)methyl)-5-cyclopropyl-2-fluoro-N-(methylsulfonyl)benzamide, trifluoroacetic acid salt]
18 nM |  | COC[C@@H](c1cccc(Cl)c1)N1CCC(COc2cc(F)c(C(=O)NS(C)(=O)=O)cc2C2CC2)CC1 [Example 262, (R)-4-((1-(1-(3-chlorophenyl)-2-methoxyethyl)piperidin-4-yl)methoxy)-5-cyclopropyl-2-fluoro-N-(methylsulfonyl)benzamide]
34 nM |  | CS(=O)(=O)NC(=O)c1cc(C2CC2)c(OCC2CCN(CC(F)(F)C(F)F)CC2)cc1F [Example 192, 5-Cyclopropyl-2-fluoro-N-(methylsulfonyl)-4-((1-(2,2,3,3-tetrafluoropropyl)piperidin-4-yl)methoxy)benzamide]
38.1 nM |  | CS(=O)(=O)NC(=O)c1cc(C2CC2)c(CN2CCC(OCc3ccc(F)cc3Cl)CC2)cc1F [Example 478, 4-((4-((2-chloro-4-fluorobenzyl)oxy)piperidin-1-yl)methyl)-5-cyclopropyl-2-fluoro-N-(methylsulfonyl)benzamide, trifluoroacetic acid salt]
327 nM |  | CS(=O)(=O)NC(=O)c1cc(C2CC2)c(OCC2CCN(Cc3ncccc3C(F)(F)F)CC2)cc1F [Example 365, 5-cyclopropyl-2-fluoro-N-(methylsulfonyl)-4-((1-((3-(trifluoromethyl)pyridin-2-yl)methyl)piperidin-4-yl)methoxy)benzamide, trifluoroacetic acid salt]

IC50 [1] | IC50 | Compound
9.2 nM |  | CC1(COc2cc(F)c(C(=O)NS(=O)(=O)C3CC3)cc2C2CC2)CN(c2ccc(C(F)(F)F)cn2)C1 [Example 488, 5-cyclopropyl-N-(cyclopropylsulfonyl)-2-fluoro-4-((3-methyl-1-(5-(trifluoromethyl)pyridin-2-yl)azetidin-2-3-yl)methoxy)benzamide, trifluoroacetic acid salt]
6 nM |  | O=C(NS(=O)(=O)C1CC1)c1cc(C2CC2)c(OCC2CCN(Cc3cc(C(F)(F)F)cc(C4CC4)n3)CC2)cc1F [Example 308]
103 nM |  | CC1(COc2cc(F)c(C(=O)NS(=O)(=O)C3CC3)cc2C2CC2)CN(c2ccncc2C(F)(F)F)C1 [Example 489, 5-cyclopropyl-N-(cyclopropylsulfonyl)-2-fluoro-4-((3-methyl-1-(3-(trifluoromethyl)pyridin-4-yl)azetidin-3-yl)methoxy)benzamide, trifluoroacetic acid salt]
3.3 nM |  | C[C@H](c1cc(Cl)cc(C(F)(F)F)c1)N1CCC(C)(COc2cc(F)c(C(=O)NS(C)(=O)=O)cc2C2CC2)CC1 (single isomer, unassigned) [Example 278]
45.1 nM |  | CS(=O)(=O)NC(=O)c1cc(C2CC2)c(OCC2CCN(Cc3ccc(Cl)cc3)CC2)cc1F [Example 104, 4-((1-(4-Chlorobenzyl)piperidin-4-yl)methoxy)-5-cyclopropyl-2-fluoro-N-(methylsulfonyl)benzamide]
15.5 nM |  | CS(=O)(=O)NC(=O)c1cc(C2CC2)c(OCC2CCN(Cc3ccc(OC(F)(F)F)cc3)CC2)cc1F [Example 135]
 | 26 nM | CS(=O)(=O)NC(=O)c1cc(C2CC2)c(OCC2CCN(Cc3cc(Cl)cc(C#N)c3)CC2)cc1F [Example 590, 4-((1-(3-chloro-5-cyanobenzyl)piperidin-4-yl)methoxy)-5-cyclopropyl-2-fluoro-N-(methylsulfonyl)benzamide]
10.9 nM |  | CS(=O)(=O)NC(=O)c1cc(C2CC2)c(OCC2CCN(Cc3nc(-c4ccccc4Cl)no3)CC2)cc1F [Example 410, 4-((1-((3-(2-chlorophenyl)-1,2,4-oxadiazol-5-yl)methyl)piperidin-4-yl)methoxy)-5-cyclopropyl-2-fluoro-N-(methylsulfonyl)benzamide, trifluoroacetic acid salt]
243 nM |  | O=C(NS(=O)(=O)N1CCC1)c1cc(C2CC2)c(O[C@@H]2CCCN(c3ccccn3)C2)cc1F [Example 493, (R)—N-(azetidin-1-ylsulfonyl)-5-cyclopropyl-2-fluoro-4-((1-(pyridin-2-yl)piperidin-3-yl)oxy)benzamide]
 | 1.7 nM | O=C(NS(=O)(=O)C1CC1)c1cc(C2CC2)c(O[C@@H]2CCCN(Cc3ccccc3Cl)C2)cc1F [Example 23, (R)-4-((1-(2-chlorobenzyl)piperidin-3-yl)oxy)-5-cyclopropyl-N-(cyclopropylsulfonyl)-2-fluorobenzamide]
12.3 nM |  | CCC(c1cc(Cl)cc(Cl)c1)N1CC(COc2cc(F)c(C(=O)NS(C)(=O)=O)cc2C2CC2)C1 (stereo not drawn) [Example 158, 5-Cyclopropyl-4-((1-(1-(3,5-dichlorophenyl)propyl)azetidin-3-yl)methoxy)-2-fluoro-N-(methylsulfonyl)benzamide]
 | 3.5 nM | O=C(NS(=O)(=O)C1CC1)c1cc(C2CC2)c(O[C@@H]2CCCN(Cc3ccc(F)cc3F)C2)cc1F [Example 9, (R)-5-cyclopropyl-N-(cyclopropylsulfonyl)-4-((1-(2,4-difluorobenzyl)-piperidin-3-yl)oxy)-2-fluorobenzamide]
3.3 nM |  | COc1ccc(CN2CCC[C@@H](Oc3cc(F)c(C(=O)NS(C)(=O)=O)cc3C3CC3)C2)c(Cl)c1 [Example 432, (R)-4-((1-(2-chloro-4-methoxybenzyl)piperidin-3-yl)oxy)-5-cyclopropyl-2-fluoro-N-(methylsulfonyl)benzamide, trifluoroacetic acid salt]
3.6 nM |  | COC[C@H](c1cc(Cl)cc(Cl)c1)N1CCC(COc2cc(F)c(C(=O)NS(C)(=O)=O)cc2C2CC2)CC1 (single isomer, unassigned) [Example 163]
4 nM |  | C[C@@H](c1cc(Cl)cc(Cl)c1)N1CCC(F)(COc2cc(F)c(C(=O)NS(C)(=O)=O)cc2C2CC2)CC1 [Example 349, (S)-5-cyclopropyl-4-((1-(1-(3,5-dichlorophenyl)ethyl)-4-fluoropiperidin-4-yl)methoxy)-2-fluoro-N-(methylsulfonyl)benzamide, trifluoroacetic acid salt]

Compound | IC50 [1] | IC50
O=C(NS(=O)(=O)N1CCC1)c1cc(C2CC2)c(OCC2CC3CCC(C2)N3Cc2ccccc2Cl)cc1F (stereo not drawn) [Example 47, N-(azetidin-1-ylsulfonyl)-4-((8-(2-chlorobenzyl)-8-azabicyclo[3.2.1]octan-3-yl)methoxy)-5-cyclopropyl-2-fluorobenzamide] | 25.1 nM | 
O=C(NS(=O)(=O)C1CC1)c1cc(C2CC2)c(CN2[C@@H]3CC[C@H]2C[C@@H](Oc2cc(C(F)(F)F)c(Cl)cn2)C3)cc1F [Example 551, 4-(((1R,3r,5S)-3-((5-chloro-4-(trifluoromethyl)pyridin-2-yl)oxy)-8-azabicyclo[3.2.1]octan-8-yl)methyl)-5-cyclopropyl-N-(cyclopropylsulfonyl)-2-fluorobenzamide, trifluoroacetic acid salt] | 7.5 nM | 
